Laboratory results from patent US9145376B2, “Quinazolinone inhibitors of dynein” (The Rockefeller University, priority 2011, dated 2015).

Test system: ciliary IFT88 in Shh-EGFP cells (cytoplasmic dynein 2-dependent retrograde transport)
Assay: Quantitative assessment of IFT88 trafficking
Type: cell-based
Settings: 50 μM, one hour, compared to DMSO or compound 16
Description: As a microtubule-based compartment, the cilium utilizes specific motor proteins to move macromolecules along its axoneme. Intraflagellar transport (IFT) of cargo can be resolved into anterograde trafficking, which requires the plus end-directed kinesin-2 motor and the IFTB multisubunit complex, and retrograde trafficking, which utilizes the minus end-directed cytoplasmic dynein 2 motor and the IFTA complex. The genetic disruption of individual kinesin-2, cytoplasmic dynein 2, or IFT complex subunits has been previously found to induce ciliary defects and perturb Hh signaling. […] To confirm that ciliobrevins target cilia trafficking in general rather than a Hh pathway-specific process, we examined the effect of ciliobrevins on the subcellular localization of IFTB component IFT88, which requires cytoplasmic dynein 2-dependent retrograde transport for its return to the ciliary basal body.
Shh-EGFP cells were seeded into 24-well plates containing poly-D-lysine-coated 12-mm glass coverslips at a density of 30,000 cells/well and cultured for 24 hours in DMEM containing 10% calf serum, 100 U/mL penicillin, and 0.1 mg/mL streptomycin. […] Ciliary IFT levels were quantified essentially as described for Gli2 though no background was subtracted. At least 25 cilia were analyzed to determine the average ciliary IFT88 level for each experimental condition.

## N#C/C(C(=O)c1ccc(Cl)cc1Cl)=C1\NC(=O)c2ccc(Cl)cc2N1 [Example 31, 2-(7-chloro-4-oxo-3,4-dihydroquinazolin-2(1H)-ylidene)-3-(2,4-dichlorophenyl)-3-oxo-propanenitrile]
  IFT88 levels at the distal tip of primary cilia: significant increase
